# Data reported in US20250339415A1, “DISULFIDE COMPOUNDS AS MEDICAMENTS” (CYTACOAT AB, priority 2021, published 2025).
# How the values were obtained:
# [1] = test system: E. coli; experiment: Combination therapy: Fradiomycin with PDEA, visible growth; assay type: cell-based; details: no PDEA
# Experimental: (§1) Different concentrations of Fradiomycin in Mueller Hinton were prepared in 3 different concentrations of PDEA. E. coli and S. aureus were inoculated (10^5) and were incubated overnight. Readouts were “Clear” and “Foggy”.
# [2] = test system: S. aureus; experiment: as above; assay type: cell-based; details: no PDEA
# Experimental: as §1
smiles,measurement,setting,value
NC[C@@H]1O[C@H](O[C@H]2[C@@H](O)[C@H](O[C@@H]3[C@@H](O)[C@H](N)C[C@H](N)[C@H]3O[C@H]3O[C@H](CN)[C@@H](O)[C@H](O)[C@H]3N)O[C@@H]2CO)[C@H](N)[C@@H](O)[C@@H]1O [Fradiomycin],visible growth readout,[1]; Fradiomycin 0.0156 μg/ml,Foggy
same,visible growth readout,[1]; Fradiomycin 0.03125 μg/ml,Foggy
same,visible growth readout,[1]; Fradiomycin 0.0625 μg/ml,Foggy
same,visible growth readout,[1]; Fradiomycin 0.125 μg/ml,Foggy
same,visible growth readout,[1]; Fradiomycin 0.25 μg/ml,Foggy
same,visible growth readout,[1]; Fradiomycin 0.5 μg/ml,Foggy
same,visible growth readout,[1]; Fradiomycin 2 μg/ml,Clear
same,visible growth readout,[1]; Fradiomycin 4 μg/ml,Clear
same,visible growth readout,[1]; Fradiomycin 8 μg/ml,Clear
same,visible growth readout,[1]; Fradiomycin 16 μg/ml,Clear
same,visible growth readout,[1]; Fradiomycin 32 μg/ml,Clear
same,visible growth readout,[1]; Fradiomycin 64 μg/ml,Clear
same,visible growth readout,[1]; Fradiomycin 128 μg/ml,Clear
same,visible growth readout,[1]; Fradiomycin 256 μg/ml,Clear
same,visible growth readout,[2]; Fradiomycin 0.0156 μg/ml,Foggy
same,visible growth readout,[2]; Fradiomycin 0.03125 μg/ml,Foggy
same,visible growth readout,[2]; Fradiomycin 0.0625 μg/ml,Foggy
same,visible growth readout,[2]; Fradiomycin 0.125 μg/ml,Foggy
same,visible growth readout,[2]; Fradiomycin 0.25 μg/ml,Foggy
same,visible growth readout,[2]; Fradiomycin 0.5 μg/ml,Foggy
same,visible growth readout,[2]; Fradiomycin 1 μg/ml,Clear
same,visible growth readout,[2]; Fradiomycin 2 μg/ml,Clear
same,visible growth readout,[2]; Fradiomycin 4 μg/ml,Clear
same,visible growth readout,[2]; Fradiomycin 8 μg/ml,Clear
same,visible growth readout,[2]; Fradiomycin 16 μg/ml,Clear
same,visible growth readout,[2]; Fradiomycin 32 μg/ml,Clear
same,visible growth readout,[2]; Fradiomycin 64 μg/ml,Clear
same,visible growth readout,[2]; Fradiomycin 128 μg/ml,Clear
same,visible growth readout,[2]; Fradiomycin 256 μg/ml,Clear
